Assay results as given in US20040235070A1, “Immune reactivity to expressed activated oncogenes for diagnosis and treatment of malignancy” (Washington Research Foundation, priority 1990, published 2004).

System: lymphocytes from mice immunized with the Arg-12 peptide
Assay: Proliferation assay of lymph node lymphocytes from mice immunized with ras Arg-12 peptide
Assay type: cell-based
Details: lymphocytes from C57BL/6 mice immunized with a single dose of Arg-12 peptide; FIG. 1
Description: FIG. 1 graphically illustrates that specific T cell responses to point-mutated ras peptide can be generated by in vivo priming on day 0 with 50 μg of a peptide of 12 amino acid length constructed identically to murine ras-p21 (amino acids 5-16) but with the substitution of arginine for the glycine normally found at position 12 (i.e., position 12 of ras-p21 but position 8 of the peptide). This peptide is denoted as ras p5-16[R12] or as ras-R12. Mice were immunized with ras-R12 peptide plus adjuvant or with adjuvant alone. […]
Lymphocytes obtained from immunized mice were suspended in culture medium (consisting of RPMI 1640 Gibco supplemented with 10% fetal calf serum, 2 mM L-glutamine, 100 U/ml streptomycin, 100 U/ml penicillin and 2.5×10^−5 M 2-mercaptoethanol) and were plated in 96-well flat bottom microtiter plates (Costar Co., Cambridge, Mass.) at 1×10^5 cells per well. […] Lymphocytes from individual wells were collected onto filter paper disks using a multi-channel harvester then transferred to scintillation fluid in individual counting tubes. β emission was measured using a Beckmann liquid scintillation spectrophotometer. […]

Sequence: KLVVVGARGVGK [Arg-12 peptide, residues 5-16 of ras p21 with arginine for glycine at position 12]
- proliferative response in vitro: proliferate specifically
